{"source": "paper PMC2615442", "about": "“Comparative analysis of selected methods for the assessment of antimicrobial and membrane-permeabilizing activity: a case study for lactoferricin derived peptides” (BMC Microbiology, 2008)", "key": {"[1]": {"tested_on": "P. aeruginosa strain PAO1", "settings": "for final MIC of antibiotic: in the presence of subinhibitory concentrations of peptide P22, strain PAO1", "method": "For these experiments we used the wild type P. aeruginosa strain PAO1, whose mechanisms of antibiotic resistance have been extensively studied.\n(§1) The ability of the peptides to induce bacterial sensitization to antibiotics was determined by a standard checkerboard titration method in 96-well polystyrene microtiter plates. For this purpose, serial dilutions of the two antimicrobial agents were mixed together in a microtiter plate so that each row contained a fixed amount of peptide and increasing amounts of the antibiotic. Inocula and growth conditions were identical to those described for MIC determination. To assess the synergy between antibiotics and peptides, the Fractional Inhibitory Concentration (FIC) index of each combination was calculated according to the following formula: [(A)/MICA] + [(P)/MICP] = FICA + FICP = FIC index, where MICA and MICP are the MICs of the antibiotic and peptide determined separately, and (A) and (P) are the MICs of the antibiotic and peptide when determined in combination. A given peptide-antibiotic combination was considered as synergistic if its FIC index was ≤ 0.5."}, "E. coli ATCC 25922": {"tested_on": "E. coli ATCC 25922", "assay": "MIC/MBC in polypropylene vs. polystyrene microplates", "assay_type": "cell-based, Escherichia coli", "settings": "for MIC, polypropylene vs. polystyrene plates: broth microdilution", "method": "It has been reported that cationic peptides have affinity for certain plastics (i.e. polystyrene; [20]), and as a consequence some authors disfavor the use of microplates made of such material. To investigate this potential interference, we studied whether the composition of the microplate (polypropylene vs. polystyrene) affected the antibacterial activity of selected peptides differing in length, hydrophobicity and net charge when tested on E. coli ATCC 25922.\nThe peptides MICs were determined in Mueller-Hinton (MH) medium (Difco Laboratories, Sparks, MD, USA) by the broth microdilution assay following recommendations of the Clinical and Laboratory Standards Institute. Briefly, serial twofold dilutions of the peptides were made in MH broth and dispensed into 96-well U-bottom polystyrene microtiter plates (TPP, Trasadingen, Switzerland). Bacterial cells grown for 18–20 h on agar plates were suspended in saline and the turbidity was adjusted to an O.D600 of 0.04 (1 × 10^7 CFU/mL, approximately). A hundred-fold dilution of this suspension prepared in MH broth was mixed 1:1 with 100 μL of each of the corresponding peptide dilution. Plates were incubated at 37°C without shaking for 18–20 h and the MIC was determined visually. Minimum bactericidal concentration (MBC) was determined by plating aliquots from those wells with no growth onto MH agar plates. MBC was defined as the lowest concentration of the peptide causing a 99.9% loss of viability with respect to the CFU/mL inoculated.\nThe peptides MICs were also determined using polypropylene labware by the conventional broth microdilution assay as described above. For these experiments, polypropylene 96 well round bottom plates (Greiner; Sigma-Aldrich, USA) were used. Both this and all the previous antimicrobial susceptibility assays were performed at least in duplicate."}, "[2]": {"tested_on": "Pseudomonas aeruginosa 4158-02", "assay": "microbe, parasite or virus in culture", "settings": "for FIC index of peptide-novobiocin combination: checkerboard, peptides with MIC >250 μg/mL assigned 500 μg/mL, synergistic if ≤ 0.5; for synergistic activity with novobiocin, in words: subinhibitory peptide concentrations", "method": "First, we studied the ability of the peptides to sensitize P. aeruginosa to novobiocin, a hydrophobic antibiotic that cannot reach its intracellular target (gyrase) due to its inability to cross an intact outer membrane. […] Specifically, for a combination to be considered synergistic MIC of each agent when combined have to be at least 4-times lower than that of the corresponding agent alone.\nas §1"}, "Pseudomonas aeruginosa [3]": {"tested_on": "Pseudomonas aeruginosa", "assay": "NPN uptake permeabilization assay", "assay_type": "cell-based", "settings": "peptide 50 μg/mL; NPN 10 μM; 5 mM HEPES pH 7.2 with 0.1% glucose; 37°C", "method": "In addition to this indirect method, we used a direct assay which measures the ability of peptides to promote the entry of a hydrophobic fluorescent probe (1-N-phenylnaphthylamine; NPN) into the cell membrane. This method identifies potent permeabilizers as those causing rapid NPN uptake leading to a high level of fluorescence.\nThe peptides permeabilizing activity on the bacterial cell envelope was assessed by quantifying the uptake of 1-N-phenylnaphthylamine (NPN). These experiments were performed essentially as described by Loh and collaborators with some modifications. Briefly, bacterial cells were grown in LB broth to mid-logarithmic phase, washed in 5 mM HEPES buffer (N-2-hydroxyethylpiperazine-N'-2-ethanesulfonic acid, pH 7.2) and resuspended at an OD600 of 0.5 in HEPES supplemented with 0.1% glucose. Freshly prepared bacterial suspensions were allowed to stabilize at 37°C for 10 min in quartz cuvettes. NPN was added at a final concentration of 10 μM and fluorescence was measured with a fluorometer (LS-50, Perkin-Elmer, Wellesley, MA, USA) using the time drive recording mode, slit widths of 2.5 nm and excitation and emission wavelengths of 350 nm and 420 nm, respectively. Peptides were added to the cuvette at a final concentration of 50 μg/mL."}, "[4]": {"tested_on": "Bordetella bronchiseptica", "assay": "Bactericidal activity on resting bacteria in phosphate buffer with or without Ca2+/Mg2+", "assay_type": "cell-based", "settings": "20 mM phosphate pH 7.0 (PB vs PB-CM), 18 hours, viable counts", "method": "(§2) All peptides were first screened for bactericidal activity under low ionic strength conditions on resting bacteria. For this purpose, we exposed bacterial cells in phosphate buffer (PB) to increasing concentrations of peptides and performed viable cell counts. Experimental designs similar to this are found in reports dealing with the biological characterization of peptides (see for instance). These experiments were performed on Escherichia coli, Pseudomonas aeruginosa and Bordetella bronchiseptica, three Gram-negative pathogens differing in sensitivity to APs.\n(§3) The buffer used in the previous experiments was devoid of Ca^2+ and Mg^2+, two divalent cations known to contribute to outer membrane stabilization. […] However, the magnitude of the decrease varied markedly depending upon the peptide and strain.\n(§4) The activity of the peptides was determined on non-growing bacteria by incubating bacterial suspensions containing number of CFU/mL identical to those used for the MIC assay (5 × 10^4 per microplate well) in low-ionic strength medium (20 mM phosphate, pH 7.0) with or without 1 mM Ca ^2+ and 1 mM Mg ^2+. After 18 hours, aliquots were plated onto MH agar to determine the presence of viable bacteria, as described above for the standard MBC assay."}, "Escherichia coli": {"tested_on": "Escherichia coli", "assay": "Bactericidal activity on resting bacteria in phosphate buffer with or without Ca2+/Mg2+", "assay_type": "cell-based", "settings": "20 mM phosphate pH 7.0 (PB vs PB-CM), 18 hours, viable counts", "method": "as §2, §3, §4"}, "Pseudomonas aeruginosa [5]": {"tested_on": "Pseudomonas aeruginosa", "assay": "Bactericidal activity on resting bacteria in phosphate buffer with or without Ca2+/Mg2+", "assay_type": "cell-based", "settings": "20 mM phosphate pH 7.0 (PB vs PB-CM), 18 hours, viable counts", "method": "as §2, §3, §4"}}, "note": "Where a SMILES comes first, the peptide text is derived from it."}
{"compound": "CC1(C)S[C@@H]2[C@H](NC(=O)[C@H](N)c3ccc(O)cc3)C(=O)N2[C@H]1C(=O)O", "note": "[amoxicillin]", "values": [{"measurement": "final MIC of antibiotic", "setting": "[1]", "result": 2, "unit": "µg/mL"}]}
{"compound": "CC[C@H](C)[C@H](NC(=O)[C@H](CC(N)=O)NC(=O)[C@H](CCCNC(=N)N)NC(=O)[C@H](CCC(N)=O)NC(=O)[C@H](Cc1c[nH]c2ccccc12)NC(=O)[C@H](Cc1ccccc1)NC(=O)[C@@H](N)CCCNC(=N)N)C(=O)N[C@@H](CCCNC(=N)N)C(=O)N[C@@H](CCCCN)C(=O)N[C@@H](Cc1ccc(O)cc1)C(=O)N[C@@H](CCCNC(=N)N)C(=O)N[C@@H](CCCNC(=N)N)C(N)=O", "note": "[P 22] (H-RFWQRNIRKYRR-NH2)", "values": [{"measurement": "FIC of P22-antibiotic combinations", "setting": "[1]; PAO1", "result": "< 0.5"}, {"measurement": "peptide MIC", "setting": "[1]; PAO1", "result": 31.25, "unit": "µg/mL"}]}
{"compound": "FWQRNIRKVKKKK-NH2 [P 13, LF11 derived synthetic peptide, amidated C-terminus]", "values": [{"measurement": "MBC, polypropylene vs. polystyrene plates", "setting": "E. coli ATCC 25922", "result": "not significantly affected by the type of material used"}, {"measurement": "MIC, polypropylene vs. polystyrene plates", "setting": "E. coli ATCC 25922", "result": "MIC improved in polypropylene plates"}]}
{"compound": "FWQRRIRKVRR-NH2 [P 15]", "values": [{"measurement": "FIC index of peptide-novobiocin combination", "setting": "[2]", "result": "low FIC indices"}, {"measurement": "synergistic activity with novobiocin, in words", "setting": "[2]", "result": "synergistic activity at low concentrations"}]}
{"compound": "FWLRNIRKVR-NH2 [P 48]", "values": [{"measurement": "FIC index of peptide-novobiocin combination", "setting": "[2]", "result": "low FIC indices"}]}
{"compound": "FWQRNIRKVKKK-NH2 [P 10]", "values": [{"measurement": "FIC index of peptide-novobiocin combination", "setting": "[2]", "result": "best compounds as judged by their FIC indices"}, {"measurement": "synergistic activity with novobiocin, in words", "setting": "[2]", "result": "synergistic activity at low concentrations"}]}
{"compound": "CCn1cc(C(=O)O)c(=O)c2ccc(C)nc21", "note": "[nalidixic acid]", "values": [{"measurement": "final MIC of antibiotic", "setting": "[1]", "result": 2, "unit": "µg/mL"}]}
{"compound": "FWQRNISKVR-NH2 [P 54, LF11 derived synthetic peptide, amidated C-terminus]", "values": [{"measurement": "classification by the novobiocin-sensitization technique", "setting": "[2]", "result": "poor permeabilizers"}, {"measurement": "NPN uptake (fluorescence rise)", "setting": "Pseudomonas aeruginosa [3]", "result": "slowest and less prominent NPN-uptakes"}]}
{"compound": "CFWQRNIRKVRC-NH2 [P 28, LF11 derived synthetic peptide, disulfide insertion, linear]", "values": [{"measurement": "classification by the novobiocin-sensitization technique", "setting": "[2]", "result": "poor permeabilizers"}, {"measurement": "NPN uptake (fluorescence rise)", "setting": "Pseudomonas aeruginosa [3]", "result": "slowest and less prominent NPN-uptakes"}]}
{"compound": "CO[C@H]1/C=C/O[C@@]2(C)Oc3c(C)c(O)c4c(O)c(c(/C=N/N5CCN(C)CC5)c(O)c4c3C2=O)NC(=O)/C(C)=C\\C=C\\[C@H](C)[C@H](O)[C@@H](C)[C@@H](O)[C@@H](C)[C@H](OC(C)=O)[C@@H]1C", "note": "[rifampicin]", "values": [{"measurement": "final MIC of antibiotic", "setting": "[1]", "result": 0.07, "unit": "µg/mL"}]}
{"compound": "CC1(C)S[C@@H]2[C@H](NC(=O)[C@H](N)c3ccccc3)C(=O)N2[C@H]1C(=O)O", "note": "[ampicillin]", "values": [{"measurement": "final MIC of antibiotic", "setting": "[1]", "result": 5, "unit": "µg/mL"}]}
{"compound": "FWQRNIRKVRRRR-NH2 [P 11, LF11 derived synthetic peptide, amidated C-terminus]", "values": [{"measurement": "MBC, polypropylene vs. polystyrene plates", "setting": "E. coli ATCC 25922", "result": "lower in polystyrene"}, {"measurement": "MIC, polypropylene vs. polystyrene plates", "setting": "E. coli ATCC 25922", "result": "same MIC in both materials"}]}
{"compound": "FWARNIRKVR-NH2 [P 46, LF11 derived synthetic peptide, amidated C-terminus]", "values": [{"measurement": "MBC, polypropylene vs. polystyrene plates", "setting": "E. coli ATCC 25922", "result": "improved its MBC when using polypropylene instead of polystyrene"}]}
{"compound": "Polymyxin B [PMB]", "values": [{"measurement": "MIC, polypropylene vs. polystyrene plates", "setting": "E. coli ATCC 25922", "result": "higher activity (lower MIC value) when assayed in polypropylene"}, {"measurement": "effect of 1 mM Ca2+ and 1 mM Mg2+ on bactericidal activity", "setting": "[4]", "result": "not significantly affected by the divalent cations"}, {"measurement": "effect of 1 mM Ca2+ and 1 mM Mg2+ on bactericidal activity", "setting": "Escherichia coli", "result": "not significantly affected by the divalent cations"}, {"measurement": "effect of 1 mM Ca2+ and 1 mM Mg2+ on bactericidal activity", "setting": "Pseudomonas aeruginosa [5]", "result": "not significantly affected by the divalent cations"}]}
{"compound": "FWQRNIYKVR-NH2 [P 41, LF11 derived synthetic peptide, amidated C-terminus]", "values": [{"measurement": "classification by the novobiocin-sensitization technique", "setting": "[2]", "result": "poor permeabilizers"}, {"measurement": "NPN uptake (fluorescence rise)", "setting": "Pseudomonas aeruginosa [3]", "result": "slowest and less prominent NPN-uptakes"}]}
{"compound": "CO[C@@H]1[C@@H](OC(N)=O)[C@@H](O)[C@H](Oc2ccc3c(O)c(NC(=O)c4ccc(O)c(CC=C(C)C)c4)c(=O)oc3c2C)OC1(C)C", "note": "[novobiocin, reference compound]", "values": [{"measurement": "MIC", "setting": "[2]; Pseudomonas aeruginosa, 415802, read-out: novobiocin MIC in the absence of peptides", "result": "≥ 512", "unit": "µg/mL"}, {"measurement": "final MIC of antibiotic", "setting": "[1]", "result": 5, "unit": "µg/mL"}]}
{"compound": "FWQRNIRKVKKKI-NH2 [P 14]", "values": [{"measurement": "FIC index of peptide-novobiocin combination", "setting": "[2]", "result": "best compounds as judged by their FIC indices"}, {"measurement": "decrease in novobiocin MIC (MIC ratio without/with peptide)", "setting": "[2]; peptide added at 6.25 μg/mL", "result": 4, "unit": "fold"}, {"measurement": "times the synergistic peptide concentration (6.25 μg/mL) is lower than the peptide's own MIC", "setting": "[2]; peptide at 6.25 μg/mL", "result": "at least 40 times"}]}
{"compound": "FWRNIRKVR-NH2 [P 3, LF11 derived synthetic peptide, amidated C-terminus]", "values": [{"measurement": "classification by the novobiocin-sensitization technique", "setting": "[2]", "result": "poor permeabilizers"}, {"measurement": "NPN uptake (fluorescence rise)", "setting": "Pseudomonas aeruginosa [3]", "result": "slowest and less prominent NPN-uptakes"}]}
{"compound": "CC[C@H]1OC(=O)[C@H](C)[C@@H](O[C@H]2C[C@@](C)(OC)[C@@H](O)[C@H](C)O2)[C@H](C)[C@@H](O[C@@H]2O[C@H](C)C[C@H](N(C)C)[C@H]2O)[C@](C)(O)C[C@@H](C)C(=O)[C@H](C)[C@@H](O)[C@]1(C)O", "note": "[erythromycin]", "values": [{"measurement": "final MIC of antibiotic", "setting": "[1]", "result": 1, "unit": "µg/mL"}]}
